What was measured:
[1] = molecular target: Casein kinase II subunit alpha (Homo sapiens) (UniProt P68400); test: Inhibition of human CK2alpha using RRRDDDSDDD peptide substrate at 20 uM by P81 filter-binding assay; parameters: scale not given: the % may be the effect or the level left
[2] = molecular target: Casein kinase II subunit alpha (Homo sapiens) (UniProt P68400); test: Inhibition of human CK2alpha using RRRDDDSDDD peptide substrate at 200 uM by P81 filter-binding assay; parameters: scale not given: the % may be the effect or the level left
MCF7 [3] = test: Anticancer activity against human MCF7 cells assessed as cell viability at 12.5 uM after 24 hrs by MTT assay; format: functional; conditions: MCF7, 24 h, read-out: Activity
MCF7 [4] = test: Anticancer activity against human MCF7 cells assessed as cell viability at 25 uM after 24 hrs by MTT assay; format: functional; conditions: MCF7, 24 h, read-out: Activity
MCF7 [5] = test: Anticancer activity against human MCF7 cells assessed as cell viability at 50 uM after 24 hrs by MTT assay; format: functional; conditions: MCF7, 24 h, read-out: Activity
MCF7 [6] = test: Anticancer activity against human MCF7 cells assessed as cell viability at 100 uM after 24 hrs by MTT assay; format: functional; conditions: MCF7, 24 h, read-out: Activity
MCF7 [7] = test: Anticancer activity against human MCF7 cells assessed as cell viability at 12.5 uM after 48 hrs by MTT assay; format: functional; conditions: MCF7, 48 h, read-out: Activity
MCF7 [8] = test: Anticancer activity against human MCF7 cells assessed as cell viability at 25 uM after 48 hrs by MTT assay; format: functional; conditions: MCF7, 48 h, read-out: Activity
MCF7 [9] = test: Anticancer activity against human MCF7 cells assessed as cell viability at 50 uM after 48 hrs by MTT assay; format: functional; conditions: MCF7, 48 h, read-out: Activity
MCF7 [10] = test: Anticancer activity against human MCF7 cells assessed as cell viability at 100 uM after 48 hrs by MTT assay; format: functional; conditions: MCF7, 48 h, read-out: Activity
CCRF-CEM [11] = test: Anticancer activity against human CCRF-CEM cells assessed as cell viability at 12.5 uM after 24 hrs by MTT assay; format: functional; conditions: read-out: Activity
CCRF-CEM [12] = test: Anticancer activity against human CCRF-CEM cells assessed as cell viability at 25 uM after 24 hrs by MTT assay; format: functional; conditions: read-out: Activity
CCRF-CEM [13] = test: Anticancer activity against human CCRF-CEM cells assessed as cell viability at 50 uM after 24 hrs by MTT assay; format: functional; conditions: read-out: Activity
CCRF-CEM [14] = test: Anticancer activity against human CCRF-CEM cells assessed as cell viability at 100 uM after 24 hrs by MTT assay; format: functional; conditions: read-out: Activity
CCRF-CEM [15] = test: Anticancer activity against human CCRF-CEM cells assessed as cell viability at 12.5 uM after 48 hrs by MTT assay; format: functional; conditions: read-out: Activity
CCRF-CEM [16] = test: Anticancer activity against human CCRF-CEM cells assessed as cell viability at 25 uM after 48 hrs by MTT assay; format: functional; conditions: read-out: Activity
CCRF-CEM [17] = test: Anticancer activity against human CCRF-CEM cells assessed as cell viability at 50 uM after 48 hrs by MTT assay; format: functional; conditions: read-out: Activity
CCRF-CEM [18] = test: Anticancer activity against human CCRF-CEM cells assessed as cell viability at 100 uM after 48 hrs by MTT assay; format: functional; conditions: read-out: Activity

Casein kinase II subunit alpha (Homo sapiens), sequence (P68400 whole entry, looked up): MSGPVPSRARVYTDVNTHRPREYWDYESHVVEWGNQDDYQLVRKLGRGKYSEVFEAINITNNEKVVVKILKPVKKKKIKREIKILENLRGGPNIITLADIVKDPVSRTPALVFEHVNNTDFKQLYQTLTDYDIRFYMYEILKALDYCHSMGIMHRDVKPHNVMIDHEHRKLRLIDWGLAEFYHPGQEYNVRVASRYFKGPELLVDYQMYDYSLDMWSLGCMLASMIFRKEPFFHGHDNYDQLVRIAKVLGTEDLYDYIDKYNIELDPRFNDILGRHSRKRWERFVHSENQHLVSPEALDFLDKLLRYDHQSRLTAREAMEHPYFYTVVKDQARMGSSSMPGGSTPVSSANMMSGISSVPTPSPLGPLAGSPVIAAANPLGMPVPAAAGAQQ

Row | SMILES | Activity [1] | Activity [2] | viability at 12.5 µM (MCF7 [3]) | viability at 25 µM (MCF7 [4]) | viability at 50 µM (MCF7 [5]) | viability at 100 µM (MCF7 [6]) | viability at 12.5 µM (MCF7 [7]) | viability at 25 µM (MCF7 [8]) | viability at 50 µM (MCF7 [9]) | viability at 100 µM (MCF7 [10]) | viability at 12.5 µM (CCRF-CEM [11]) | viability at 25 µM (CCRF-CEM [12]) | viability at 50 µM (CCRF-CEM [13]) | viability at 100 µM (CCRF-CEM [14]) | viability at 12.5 µM (CCRF-CEM [15]) | viability at 25 µM (CCRF-CEM [16]) | viability at 50 µM (CCRF-CEM [17]) | viability at 100 µM (CCRF-CEM [18])
1 | OC(CCn1nc2c(Br)c(Br)c(Br)c(Br)c2n1)c1ccc(F)cc1 (stereo not given) | 91.4% | 35.4% | 116% | 101% | 16% | 0% | 109% | 97% | 7% | 0% | 110% | 104% | 46% | 0% | 101% | 88% | 0% | 0%
2 | CC(O)Cn1nc2c(Br)c(Br)c(Br)c(Br)c2n1 (racemic) |  |  | 118% | 96% | 60% | 15% | 99% | 83% | 16% | 6% | 125% | 102% | 108% | 9% | 83% | 78% | 53% | 0%
3 | OC(CCn1nc2c(Br)c(Br)c(Br)c(Br)c2n1)c1ccc(Br)cc1 (stereo not given) | 97.4% | 33.5% | 82% | 59% | 10% | 0% | 107% | 105% | 15% | 0% | 101% | 109% | 58% | 0% | 89% | 69% | 0% | 0%
4 | OC(CCn1nc2c(Br)c(Br)c(Br)c(Br)c2n1)c1ccc(Cl)cc1 (stereo not given) | 95.6% | 45.4% | 90% | 96% | 19% | 0% | 100% | 92% | 9% | 0% | 105% | 106% | 56% | 0% | 93% | 69% | 0% | 0%
5 | COc1cccc(C(O)CCn2nc3c(Br)c(Br)c(Br)c(Br)c3n2)c1 (stereo not given) | 95.1% | 87.5% | 121% | 71% | 22% | 16% | 97% | 96% | 20% | 6% | 110% | 106% | 58% | 48% | 96% | 50% | 2% | 2%
6 | C[C@@H](O)CCn1nc2c(Br)c(Br)c(Br)c(Br)c2n1 |  |  | 109% | 105% | 102% | 18% | 86% | 77% | 64% | 0% | 88% | 81% | 69% | 36% | 94% | 71% | 23% | 24%
7 | C[C@H](O)Cn1nc2c(Br)c(Br)c(Br)c(Br)c2n1 |  |  | 119% | 67% | 58% | 25% | 101% | 64% | 10% | 8% | 104% | 104% | 72% | 9% | 105% | 92% | 58% | 0%
8 | Brc1c(Br)c(Br)c2[nH]nnc2c1Br [TETRABROMOBENZOTRIAZOLE] |  |  | 111% | 108% | 120% | 109% |  |  |  |  | 115% | 105% | 118% | 61% |  |  |  | 
9 | C[C@H](O)CCn1nc2c(Br)c(Br)c(Br)c(Br)c2n1 |  |  | 112% | 102% | 105% | 31% | 100% | 89% | 87% | 6% | 126% | 112% | 86% | 36% | 92% | 89% | 42% | 10%
10 | CC(O)CCn1nc2c(Br)c(Br)c(Br)c(Br)c2n1 (racemic) |  |  | 99% | 102% | 90% | 57% | 79% | 73% | 76% | 0% | 106% | 113% | 89% | 3% | 94% | 86% | 45% | 0%
11 | OCC(O)Cn1nc2c(Br)c(Br)c(Br)c(Br)c2n1 (racemic) |  |  | 145% | 156% | 98% | 53% | 116% | 111% | 109% | 8% | 78% | 89% | 47% | 8% | 60% | 56% | 27% | 1%
12 | OC(CCn1nc2c(Br)c(Br)c(Br)c(Br)c2n1)c1ccccc1 (racemic) | 93% | 31.1% | 115% | 99% | 28% | 13% | 113% | 105% | 23% | 0% | 122% | 123% | 66% | 21% | 89% | 84% | 0% | 0%
13 | OC(CCn1nc2c(Br)c(Br)c(Br)c(Br)c2n1)c1cccc(Cl)c1 (stereo not given) | 74.9% | 23.8% | 97% | 96% | 28% | 0% | 107% | 101% | 12% | 0.5% | 110% | 118% | 71% | 0% | 70% | 68% | 0% | 0%
14 | OC(CCn1nc2c(Br)c(Br)c(Br)c(Br)c2n1)c1cccc(Br)c1 (stereo not given) | 96.6% | 43.4% | 81% | 52% | 14% | 1% | 102% | 106% | 11% | 0% | 102% | 123% | 54% | 0% | 118% | 54% | 0% | 0%
